Assay results taken from patent US10851082B2, “Substituted aromatic n-heterocyclic compounds as inhibitors of mitogen-activated protein kinase interacting kinase 1 (MNK1) and 2 (MNK2)” (Northwestern University, priority 2015, dated 2020).
Where two headings read alike, the source gives them in different places.

Experiments:
Mnk1 = Mnk1 (Homo sapiens (Human), UniProt Q9BUB5); experiment: Mnk1 kinase inhibition, ADP-Glo ADP monitoring assay; assay type: biochemical
Mnk2 = Mnk2 (Homo sapiens (Human), UniProt Q9HBH9); experiment: Mnk2 kinase inhibition, ADP-Glo ADP monitoring assay; assay type: biochemical
[1] = read-out: Mnk1 inhibition IC50 (+,++,+++)
[2] = ADP-Glo kinase assay, read-out: Mnk2 inhibition IC50 (+,++,+++)
[3] = ADP-Glo kinase assay, read-out: Mnk2 IC50
[4] = unit inferred, read-out: Mnk1 IC50
[5] = ADP-Glo kinase assay, unit inferred, read-out: Mnk2 IC50

Chain of Mnk2 (Q9HBH9 whole entry): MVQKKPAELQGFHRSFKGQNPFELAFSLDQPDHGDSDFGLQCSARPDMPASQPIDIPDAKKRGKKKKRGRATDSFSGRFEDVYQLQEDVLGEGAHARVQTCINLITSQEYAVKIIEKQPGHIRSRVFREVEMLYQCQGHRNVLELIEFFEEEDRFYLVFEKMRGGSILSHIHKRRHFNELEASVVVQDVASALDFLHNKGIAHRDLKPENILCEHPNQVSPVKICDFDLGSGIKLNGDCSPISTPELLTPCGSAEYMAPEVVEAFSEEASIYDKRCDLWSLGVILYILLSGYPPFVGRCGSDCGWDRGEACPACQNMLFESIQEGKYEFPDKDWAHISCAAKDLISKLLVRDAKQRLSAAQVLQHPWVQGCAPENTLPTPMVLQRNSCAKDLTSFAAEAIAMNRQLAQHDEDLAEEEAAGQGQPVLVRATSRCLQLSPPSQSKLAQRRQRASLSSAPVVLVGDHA
Chain of Mnk1 (Q9BUB5 whole entry): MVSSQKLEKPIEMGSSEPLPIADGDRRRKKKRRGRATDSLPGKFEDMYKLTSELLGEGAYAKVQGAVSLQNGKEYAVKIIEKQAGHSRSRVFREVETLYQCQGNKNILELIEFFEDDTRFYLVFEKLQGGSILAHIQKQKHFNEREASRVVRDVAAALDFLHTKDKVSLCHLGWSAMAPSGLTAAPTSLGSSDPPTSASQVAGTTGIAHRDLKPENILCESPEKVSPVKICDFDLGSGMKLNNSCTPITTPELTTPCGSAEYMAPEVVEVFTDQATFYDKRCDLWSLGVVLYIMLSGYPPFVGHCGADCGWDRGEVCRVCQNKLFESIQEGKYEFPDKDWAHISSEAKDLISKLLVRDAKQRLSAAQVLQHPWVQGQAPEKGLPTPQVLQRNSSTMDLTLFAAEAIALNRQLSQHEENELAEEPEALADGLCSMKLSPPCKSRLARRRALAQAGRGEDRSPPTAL

| SMILES | IC50 (Mnk1; [1]) [nM] | IC50 (Mnk1; read-out: Mnk1 IC50) [nM] | IC50 (Mnk2; [3]) [nM] | also measured |
| --- | --- | --- | --- | --- |
| O[C@@H]1CC[C@@H](Nc2nccc(-n3cnc4ccccc43)n2)C1 [NUCC-0176165] |  | 340 | 61 |  |
| COC(=O)c1cnc(NCCc2ccncc2)nc1-n1cnc2ccccc21 [NUCC-0196309] |  |  |  | IC50 (Mnk1; [4]): > 10000 nM; IC50 (Mnk2; [5]): > 10000 nM |
| NC(=O)c1ccc(Nc2nccc(-n3cnc4ccccc43)n2)cc1 [NUCC-0125594] |  | 700 | 30 |  |
| c1ccc2c(c1)c1ccccc1n2-c1ccnc(NCCc2ccncc2)n1 [NUCC-0176339] |  | 11000 | 10000 |  |
| CCNC(=O)Nc1nccc(-n2cnc3ccccc32)n1 [NUCC-0196222] |  |  |  | IC50 (Mnk1; [4]): > 10000 nM; IC50 (Mnk2; [5]): 2200 nM |
| COc1ccc(Oc2ncc(Cl)c(-n3cnc4ccccc43)n2)cc1 [NUCC-0200809] |  |  |  | Mnk1 inhibition IC50 (+,++,+++) (Mnk1): no activity; Mnk2 inhibition IC50 (+,++,+++) (Mnk2; ADP-Glo kinase assay): no activity |
| c1ccc2c(c1)ncn2-c1ccnc(Nc2ccc(-n3cccn3)cc2)n1 [NUCC-0125593] |  | 650 | 39 |  |
| c1ccc2c(c1)ncn2-c1ccnc(NN2CCOCC2)n1 [NUCC-0176146] |  | 12000 | 1000 |  |
| OC1CCC(Nc2nccc(-n3cnc4ccccc43)n2)CC1 (centres unmarked) [NUCC-0176145] |  | 400 | 52 |  |
| c1ccc(Cn2cc(-c3ccnc(NCCc4c[nH]cn4)c3)cn2)cc1 [NUCC-0077167] |  | 8000 | 7600 |  |
| O[C@@H](c1ccccc1)[C@H](Nc1nccc(-n2cnc3ccccc32)n1)c1ccccc1 [NUCC-0196256] |  |  |  | IC50 (Mnk1; [4]): 7300 nM; IC50 (Mnk2; [5]): 3800 nM |
| OC1CCCC1Nc1nccc(-n2cnc3ccccc32)n1 (centres unmarked) [NUCC-0176147] |  | 450 | 82 |  |
| COc1cccc(-n2cc(-c3ccnc(NCCc4c[nH]cn4)n3)cn2)c1 [NUCC-0054133] |  | 7000 | 1800 |  |
| N#Cc1cnc(NCCc2ccncc2)nc1-n1cncn1 [NUCC-0196250] |  |  |  | IC50 (Mnk1; [4]): > 10000 nM; IC50 (Mnk2; [5]): > 10000 nM |
| c1ccc2c(c1)ncn2-c1cc(NCCc2ccncc2)cnn1 [NUCC-0176338] |  |  |  | Mnk1 IC50 (Mnk1): no activity; Mnk2 IC50 (Mnk2; ADP-Glo kinase assay): no activity |
| O=C(c1ccc(Nc2nccc(-n3cnc4ccccc43)n2)cc1)N1CCNCC1 [NUCC-0125597] |  | 6000 |  |  |
| c1cc2c(cn1)ncn2-c1ccnc(NC2CCOC2)n1 (centres unmarked) [NUCC-0176152] |  | 1600 | 1300 |  |
| COc1cccc(-n2cc(-c3ccnc(NCCN(C)C)n3)cn2)c1 [NUCC-0077166] |  | 4000 |  |  |
| Brc1cnc(NCCc2ccncc2)nc1-n1ccnc1 [NUCC-0196229] |  |  |  | IC50 (Mnk2; [5]): 1200 nM |
| c1ccc2c(c1)ncn2-c1ccnc(NC2COC2)n1 [NUCC-0176150] |  | 420 | 90 |  |
| c1ccc2c(c1)ncn2-c1ccnc(NC2CCOCC2)n1 [NUCC-0125595] |  | 500 | 83 |  |
| CC(O)CNc1ccnc(-n2cnc3ccccc32)n1 (centres unmarked) [NUCC-0176348] |  | 710 | 130 |  |
| c1ccc2c(c1)ncn2-c1ccnc(Nc2ccc(N3CCCCC3)cc2)n1 [NUCC-0125588] |  | 200 |  |  |
| Clc1cccc(-n2cc(-c3ccnc(NCc4ccncc4)n3)cn2)c1 [NUCC-0054134] |  | 6000 |  |  |
| N#Cc1ccc(CCNc2ncc(Cl)c(-n3cnc4ccccc43)n2)cc1 [NUCC-0200785] | > 10000 |  |  | IC50 (Mnk2; [2]): < 1000 nM |
| CCCn1ncc(-c2ccnc(NCc3nccn3CC)n2)c1C [NUCC-0054147] |  | 6000 | 16000 |  |

Further lines, with some results ahead:

| IC50 (Mnk1; [1]) [nM] | IC50 (Mnk1; read-out: Mnk1 IC50) [nM] | IC50 (Mnk2; [3]) [nM] | SMILES | also measured |
| --- | --- | --- | --- | --- |
| < 1000 |  |  | Fc1cnc(NC23CC(C2)C3)nc1-n1cnc2ccccc21 [NUCC-0201887] | IC50 (Mnk2; [2]): < 1000 nM |
| < 1000 |  |  | CC1(C)COC(=O)C1Oc1ncc(Cl)c(-n2cnc3ccccc32)n1 (centres unmarked) [NUCC-0201017] | IC50 (Mnk2; [2]): < 1000 nM |
| 1000 to 10000 |  |  | N#Cc1cnc(Oc2cccnc2)nc1-n1cnc2ccccc21 [NUCC-0200794] | IC50 (Mnk2; [2]): < 1000 nM |
| < 1000 |  |  | c1ccc2c(c1)ncn2-c1ccnc(OC2CCNC2)n1 (centres unmarked) [NUCC-0201896] | IC50 (Mnk2; [2]): < 1000 nM |
| < 1000 |  |  | N[C@H]1C[C@H](Oc2ncc(Cl)c(-n3cnc4ccccc43)n2)C1 [NUCC-0201052] | IC50 (Mnk2; [2]): < 1000 nM |
| < 1000 |  |  | N#Cc1cnc(OCCc2ccnc(F)c2)nc1-n1cnc2ccccc21 [NUCC-0201918] | IC50 (Mnk2; [2]): < 1000 nM |
| < 1000 |  |  | N[C@H]1C[C@@H](Oc2ncc(Cl)c(-n3cnc4ccccc43)n2)C1 [NUCC-0201047] | IC50 (Mnk2; [2]): < 1000 nM |
| < 1000 |  |  | Nc1ccc(CCOc2ncc(Cl)c(-n3cnc4ccccc43)n2)cc1 [NUCC-0201892] | IC50 (Mnk2; [2]): < 1000 nM |
| < 1000 |  |  | NC(=O)c1ccc(-c2cnc(OC3CCNC3)nc2-n2cnc3ccccc32)cc1 (centres unmarked) [NUCC-0201903] | IC50 (Mnk2; [2]): < 1000 nM |
| 1000 to 10000 |  |  | Clc1cnc(CCc2ccccn2)nc1-n1cnc2ccccc21 [NUCC-0201706, 1-(5-chloro-2-(2-(pyridin-2-yl)ethyl)pyrimidin-4-yl)-1H-benzo[d]imidazole] | IC50 (Mnk2): 1000 to 10000 nM |
| 1000 to 10000 |  |  | N#Cc1cnc(OCc2ccncc2)nc1-n1cnc2ccccc21 [NUCC-0200904] | IC50 (Mnk2): 1000 to 10000 nM |
| 1000 to 10000 |  |  | FC(F)(F)c1cc(Cl)c2ncn(-c3nc(OCCc4ccccn4)ncc3Cl)c2c1 [NUCC-0201020] | IC50 (Mnk2): 1000 to 10000 nM |
